Results on 25 compounds are retold here after patent US20220169660A1, “CYCLIC AMINO-PYRAZINECARBOXAMIDE COMPOUNDS AND USES THEREOF” (SILVERBACK THERAPEUTICS, INC., priority 2019, published 2022).

Test [1] deals with TGFβ/SMAD Singling Pathway SBE reporter cell line. Nature of the test: TGFβ reporter assay (in vitro small molecule screening). It is filed as cell-based. The conditions noted are these: SBE luciferase reporter cells, TGFβ stimulation, 18 h, luminescence. Here is the method: TGFβ/SMAD Singling Pathway SBE reporter cell line was obtained from BPS Bioscience. Cells were passed, expanded, and stored in liquid nitrogen as per the supplier's instructions with the exception that growth media is changed to DMEM-C with Geneticin (DMEM supplemented with 10% fetal bovine serum, 1×NEAA, 1 mM Pyruvate, 2 mM glutamine, 50 μg/mL penicillin, 50 U/mL streptomycin and 400 μg/mL of Geneticin). The assay media was MEM supplemented with […] fetal bovine serum, 1×NEAA, 1 mM Pyruvate, 50 μg/mL penicillin and 50 U/mL streptomycin.
Test samples (at desired concentrations diluted in assay media) were added to a 96-well assay plate, 20 μL per well. Reporter cells were harvested from the tissue culture flasks by incubation in small quantity of PBS at 37° C. for two minutes after the media in the flask is removed and cells rinsed with PBS. Cells were counted and diluted in the assay media at approximately 0.5×10^6 cells/mL and then 80 μL/well of cells were added to the assay plate containing the 20 μL/well of test samples (or media only), and incubated for approximately 5-6 hours at 37° C. in a 5% CO2 humidified incubator. After that time, 15 μL of TGFβ diluted to 12 ng/mL in the assay media was added to the plate. Controls included TGFβ titration (from 50 to 0 ng/mL) without inhibitors, and media only (without cells, inhibitor or TGFβ). Plates were incubated at 37° C. in a 5% CO2 humidified incubator for 18 h. Luciferase substrate solution is subsequently added at 100 μL per well, incubated in the dark at room temperature for 15 min, and luminescence is measured using a luminometer. EC50 values and curve fits were obtained using Prism (GraphPad Software).

The next test addresses T1, TGFBR2 (Homo sapiens, UniProt P37173).
T1 construct: purchased Reaction Biology Corp
Nature of the test: TGFBR2 RBC enzyme assay (Reaction Biology Corp.). It is filed as biochemical. Here is the method: Compounds of the disclosure were assayed by Reaction Biology Corp. using the TGFBR2 RBC enzyme assay.

T1 sequence (P37173 23-567): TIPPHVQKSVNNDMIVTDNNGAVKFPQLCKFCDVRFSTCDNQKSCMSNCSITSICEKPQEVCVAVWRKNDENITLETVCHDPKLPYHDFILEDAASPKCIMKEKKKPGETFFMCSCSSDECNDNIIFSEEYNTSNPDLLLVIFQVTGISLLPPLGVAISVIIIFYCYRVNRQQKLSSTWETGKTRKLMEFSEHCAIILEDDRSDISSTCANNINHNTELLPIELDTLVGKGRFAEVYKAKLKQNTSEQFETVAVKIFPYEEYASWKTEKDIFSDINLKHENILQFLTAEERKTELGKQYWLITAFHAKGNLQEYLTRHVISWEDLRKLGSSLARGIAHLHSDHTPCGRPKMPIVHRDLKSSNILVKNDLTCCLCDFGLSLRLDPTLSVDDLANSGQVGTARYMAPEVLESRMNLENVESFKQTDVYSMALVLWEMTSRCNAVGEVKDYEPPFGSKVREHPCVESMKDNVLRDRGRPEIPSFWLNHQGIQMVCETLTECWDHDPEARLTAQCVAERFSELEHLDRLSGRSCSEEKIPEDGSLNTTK

In test [1], `CC(C)(C)OC(=O)N1C[C@@H]2C[C@H]1COc1ccncc1NC(=O)c1nc(cnc1N)-c1cccc(c1)O2` (racemic) [Compound 41, (±)-tert-butyl(4^3,4^5-cis)-1^5-amino-9-oxo-3,6-dioxa-8-aza-1(2,6)-pyrazina-7(4,3)-pyridina-4(3,5)-pyrrolidina-2(1,3)-benzenacyclononaphane-41-carboxylate] returned an EC50 of 0.001 to 1 µM.

For `Nc1ncc2nc1C(=O)Nc1cnccc1N1CCC(CCOc3cccc-2c3)C1` (stereo not drawn) [Compound 24, 2^5-amino-9-oxa-4-aza-2(2,6)-pyrazina-5(3,4)-pyridina-6(1,3)-pyrrolidina-1(1,3)-benzenacyclononaphan-3-one], in test [1], the EC50 is over 5 µM.

Regarding `CC1CCOc2cccc(c2)-c2cnc(N)c(n2)C(=O)Nc2cnccc2N1C` (stereo not drawn) [Compound 18, 2^5-amino-6,7-dimethyl-10-oxa-4,6-diaza-2(2,6)-pyrazina-5(3,4)-pyridina-1(1,3)-benzenacyclodecaphan-3-one], the values for the half-maximal effective concentration (EC50) (on TGFBR2; in test [1]) were 0.001 to 0.1 µM and 0.001 to 1 µM, respectively.

Take `Nc1ncc2nc1C(=O)Nc1cnccc1OC[C@@H]1C[C@@H](CN1)Oc1cccc-2c1` (racemic) [Compound 42, (±)-(4^3,4^5-cis)-1^5-amino-3,6-dioxa-8-aza-1(2,6)-pyrazina-7(4,3)-pyridina-4(3,5)-pyrrolidina-2(1,3)-benzenacyclononaphan-9-one]: the EC50 on TGFBR2 lay in the range of 0.1 to 1 µM; in test [1], 0.001 to 1 µM.

As for `Nc1ncc2nc1C(=O)Nc1cnccc1SCCCOc1ccc(Br)c-2c1` [Compound 51, 2^5-amino-1^6-bromo-10-oxa-6-thia-4-aza-2(2,6)-pyrazina-5(3,4)-pyridina-1(1,3)-benzenacyclodecaphan-3-one], the EC50 at TGFBR2 was in the range of 0.001 to 0.1 µM; in test [1], 0.001 to 1 µM.

`CCCN1CCCOc2cccc(c2)-c2cnc(N)c(n2)C(=O)Nc2cnccc21` [Compound 17, 2^5-amino-6-propyl-10-oxa-4,6-diaza-2(2,6)-pyrazina-5(3,4)-pyridina-1(1,3)-benzenacyclodecaphan-3-one]: the EC50 lay within 0.001 to 0.1 µM at TGFBR2 and 0.001 to 1 µM in test [1].

Take `CN1CCCCc2cc(ccc2OCCCN)-c2cnc(N)c(n2)C(=O)Nc2cnccc21` [Compound 63, 2^5-amino-1^4-(3-aminopropxy)-6-methyl-4,6-diaza-2(2,6)-pyrazina-5(3,4)-pyridina-1(1,3)-benzenacyclodecaphan-3-one]: the concentration for a half-maximal effect (EC50) at TGFBR2 is 0.001 to 0.1 µM; in test [1], 0.001 to 1 µM.

As for `CN1CCCC(=O)Nc2cccc(c2)-c2cnc(N)c(n2)C(=O)Nc2cnccc21` [Compound 28, 2^5-amino-6-methyl-4,6,11-triaza-2(2,6)-pyrazina-5(3,4)-pyridina-1(1,3)-benzenacycloundecaphane-3,10-dione], the EC50 in test [1] is over 5 µM.

Take `CN1CCCNC(=O)c2cccc(c2)-c2cnc(N)c(n2)C(=O)Nc2cnccc21` [Compound 31, 2^5-amino-6-methyl-4,6,10-triaza-2(2,6)-pyrazina-5(3,4)-pyridina-1(1,3)-benzenacycloundecaphane-3,11-dione]: the figures for the half-maximal effective concentration (EC50) (on TGFBR2; in test [1]) were 0.1 to 1 µM and 1 to 5 µM, respectively.

Turning to `Nc1ncc2nc1C(=O)Nc1cnccc1NCCOCCOCCOc1cccc-2c1` [Compound 1, 2^5-amino-9,12,15-trioxa-4,6-diaza-2(2,6)-pyrazina-5(3,4)-pyridina-1(1,3)-benzenacyclopentadecaphan-3-one], the results for the EC50 (on TGFBR2; in test [1]) were over 1 µM and over 5 µM, respectively.

For the compound `CN1CCCNC(=O)c2cc(ccc2OCCCN)-c2cnc(N)c(n2)C(=O)Nc2cnccc21` [Compound 53, 2^5-amino-1^4-(3-aminopropoxy)-6-methyl-4,6,10-triaza-2(2,6)-pyrazina-5(3,4)-pyridina-1(1,3)-benzenacycloundecaphane-3,11-dione], the concentration giving a half-maximal response (EC50) is 0.1 to 1 µM on TGFBR2 and over 5 µM in test [1].

Regarding `CN1CCCCCOc2cccc(c2)-c2cnc(N)c(n2)C(=O)Nc2cnccc21` [Compound 9, 2^5-amino-6-methyl-12-oxa-4,6-diaza-2(2,6)-pyrazina-5(3,4)-pyridina-1(1,3)-benzenacyclododecaphan-3-one], the EC50 on TGFBR2 was in the range of 0.001 to 0.1 µM; in test [1], 0.001 to 1 µM.

In the case of `CN1CCC(=O)N(C)c2cccc(c2)-c2cnc(N)c(n2)C(=O)Nc2cnccc21` [Compound 27, 2^5-amino-6,10-dimethyl-4,6,10-triaza-2(2,6)-pyrazina-5(3,4)-pyridina-1(1,3)-benzenacyclodecaphane-3,9-dione], the EC50 was 0.001 to 0.1 µM at TGFBR2 and 0.001 to 1 µM in test [1].

On to `Nc1ncc2nc1C(=O)Nc1cnccc1OCCCOc1cccc-2c1` [Compound 21, 2^5-amino-6,10-dioxa-4-aza-2(2,6)-pyrazina-5(3,4)-pyridina-1(1,3)-benzenacyclodecaphan-3-one], for which the EC50 was over 1 µM at TGFBR2 and over 5 µM in test [1].

`CN1CCNC(=O)c2cc(ccc2OCCCN)-c2cnc(N)c(n2)C(=O)Nc2cnccc21` [Compound 55, 2^5-amino-1^4-(3-aminopropoxy)-6-methyl-4,6,9-triaza-2(2,6)-pyrazina-5(3,4)-pyridina-1(1,3)-benzenacyclodecaphane-3,10-dione]: the 50% effective concentration (EC50) is 0.1 to 1 µM on TGFBR2 and over 5 µM in test [1].

Consider `CN1CCOc2cc(OCCCN)ccc2-c2cnc(N)c(n2)C(=O)Nc2cnccc21` [Compound 65, 2^5-amino-1^4-(3-aminopropoxy)-6-methyl-9-oxa-4,6-diaza-2(2,6)-pyrazina-5(3,4)-pyridina-1(1,2)-benzenacyclononaphan-3-one], for which the EC50 at TGFBR2 was in the range of 0.001 to 0.1 µM; in test [1], 0.001 to 1 µM.

As to `CN1C[C@@H](CNCc2ccccc2)Oc2ccccc2-c2cnc(N)c(n2)C(=O)Nc2cnccc21` [Compound 57, (R)-2^5-amino-8-((benzylamino)methyl)-6-methyl-9-oxa-4,6-diaza-2(2,6)-pyrazin-5(3,4)-pyridina-1(1,2)-benzenacyclononaphan-3-one], the EC50 on TGFBR2 is over 1 µM; in test [1], 1 to 5 µM.

`CC(C)(C)OC(=O)N1C[C@@H]2C[C@H]1COc1cccc(c1)-c1cnc(N)c(n1)C(=O)Nc1cnccc1O2` (racemic) [Compound 37, (±)-tert-butyl(5^2,5^4-cis)-1^5-amino-9-oxo-3,6-dioxa-8-aza-1(2,6)-pyrazina-7(4,3)-pyridina-5(2,4)-pyrrolidina-2(1,3)-benzenacyclononaphane-51-carboxylate]: the values for the EC50 (on TGFBR2; in test [1]) were 0.1 to 1 µM and 0.001 to 1 µM, respectively.

Consider `CN1C[C@H](CN)Oc2ccccc2-c2cnc(N)c(n2)C(=O)Nc2cnccc21` [Compound 58, (S)-2^5-amino-8-(aminomethyl)-6-methyl-9-oxa-4,6-diaza-2(2,6)-pyrazina-5(3,4)-pyridina-1(1,2)-benzenacyclononaphan-3-one], for which the EC50 was over 1 µM on TGFBR2 and 1 to 5 µM in test [1].

As for `CN1CCNC(=O)c2cccc(c2)-c2cnc(N)c(n2)C(=O)Nc2cnccc21` [Compound 30, 2^5-amino-6-methyl-4,6,9-triaza-2(2,6)-pyrazina-5(3,4)-pyridina-1(1,3)-benzenacyclodecaphane-3,10-dione], the EC50 at TGFBR2 is over 1 µM; in test [1] it was over 5 µM.

As to `CC1CCN(C)c2ccncc2NC(=O)c2nc(cnc2N)-c2cccc(c2)O1` (stereo not drawn) [Compound 19, 2^5-amino-6,9-dimethyl-10-oxa-4,6-diaza-2(2,6)-pyrazina-5(3,4)-pyridina-1(1,3)-benzenacyclodecaphan-3-one], the concentration for a half-maximal effect (EC50) was 0.001 to 0.1 µM at TGFBR2 and 0.001 to 1 µM in test [1].

As for `Nc1ncc2nc1C(=O)Nc1cnccc1O[C@H]1CC[C@H](CC1)Oc1cccc-2c1` [Compound 43, (4^1,4^4-cis)-1^5-amino-3,5-dioxa-7-aza-1(2,6)-pyrazina-6(4,3)-pyridina-2(1,3)-benzena-4(1,4)-cyclohexanacyclooctaphan-8-one], the concentration giving a half-maximal response (EC50) on TGFBR2 is over 1 µM; in test [1], over 5 µM.

For the compound `Cc1cc2cc(c1)-c1cnc(N)c(n1)C(=O)Nc1cnccc1N(C)CCCO2` [Compound 10, 2^5-amino-1^5,6-dimethyl-10-oxa-4,6-diaza-2(2,6)-pyrazina-5(3,4)-pyridina-1(1,3)-benzenacyclodecaphan-3-one], the half-maximal effective concentration (EC50) at TGFBR2 is 0.001 to 0.1 µM; in test [1], 0.001 to 1 µM.

In the case of `CN1CCCN(C)c2ccncc2NC(=O)c2nc(cnc2N)-c2ccc(OCCCN)c(c2)C1=O` [Compound 54, 2^5-amino-1^4-(3-aminopropoxy)-6,10-dimethyl-4,6,10-triaza-2(2,6)-pyrazina-5(3,4)-pyridina-1(1,3)-benzenacycloundecaphane-3,11-dione], the EC50 in test [1] is over 5 µM.

Regarding `Nc1ncc2nc1C(=O)Nc1cnccc1S(=O)(=O)CCCOc1ccc(Br)c-2c1` [Compound 52, 2^5-amino-1^6-bromo-10-oxa-6-thia-4-aza-2(2,6)-pyrazina-5(3,4)-pyridina-1(1,3)-benzenacyclodecaphan-3-one 6,6-dioxide], the EC50 in test [1] was over 5 µM.
